According to US10508120B2, “TYK2 inhibitors and uses thereof” (Nimbus Lakshmi, Inc., priority 2017, dated 2019):

Key:
Tyk2 kinase domain (DH1) = Tyk2 kinase domain (DH1) (Homo sapiens (Human), UniProt P29597); test: Tyk2 Radioactive Kinase Assay; format: biochemical; settings: compound at 10 μM; ATP 10 μM; read-out: Tyk2 JH1% Inhibition @ 10 μM
How it was run: (§1)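 Single-point screen: 10 μM test compound, radioactive kinase read-out, percent inhibition reported for each kinase domain.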

[1] = target: human TYK2 (JH2domain-pseudokinase) (Homo sapiens (Human), UniProt P29597); test: TYK2 JH2 Domain Binding Assay (KINOMEscan)
How it was run: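 The construct was human TYK2 G556–D888 fused to the NFkB DNA-binding domain and expressed in HEK293 cells; unpurified extract was incubated with compound and liganded beads for 1 hour at room temperature.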

JAK2 kinase domain (JH1) = JAK2 kinase domain (JH1) (Homo sapiens (Human), UniProt O60674); test: JAK2 Radioactive Kinase Assay; format: biochemical; settings: compound at 10 μM; ATP 10 μM; read-out: JAK2 JH1% Inhibition @ 10 μM
How it was run: as §1

Sequence of Tyk2 kinase domain (DH1) (P29597 897-1176): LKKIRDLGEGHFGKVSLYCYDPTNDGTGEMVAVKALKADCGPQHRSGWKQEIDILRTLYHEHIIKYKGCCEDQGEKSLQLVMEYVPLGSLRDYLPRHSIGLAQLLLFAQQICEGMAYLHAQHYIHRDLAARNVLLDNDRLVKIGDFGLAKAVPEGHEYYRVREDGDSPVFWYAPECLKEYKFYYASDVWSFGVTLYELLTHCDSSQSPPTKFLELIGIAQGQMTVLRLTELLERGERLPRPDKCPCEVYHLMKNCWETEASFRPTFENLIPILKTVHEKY
Sequence of human TYK2 (JH2domain-pseudokinase) (P29597 556-888): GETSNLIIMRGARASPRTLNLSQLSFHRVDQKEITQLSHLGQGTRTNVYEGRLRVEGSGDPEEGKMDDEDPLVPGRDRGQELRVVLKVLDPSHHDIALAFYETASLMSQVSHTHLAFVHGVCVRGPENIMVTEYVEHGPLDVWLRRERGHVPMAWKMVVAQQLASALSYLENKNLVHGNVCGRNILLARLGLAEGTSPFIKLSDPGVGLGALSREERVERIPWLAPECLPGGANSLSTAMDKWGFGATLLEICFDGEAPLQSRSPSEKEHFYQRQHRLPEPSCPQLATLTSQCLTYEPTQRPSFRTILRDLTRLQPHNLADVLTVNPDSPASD
Sequence of JAK2 kinase domain (JH1) (O60674 849-1124): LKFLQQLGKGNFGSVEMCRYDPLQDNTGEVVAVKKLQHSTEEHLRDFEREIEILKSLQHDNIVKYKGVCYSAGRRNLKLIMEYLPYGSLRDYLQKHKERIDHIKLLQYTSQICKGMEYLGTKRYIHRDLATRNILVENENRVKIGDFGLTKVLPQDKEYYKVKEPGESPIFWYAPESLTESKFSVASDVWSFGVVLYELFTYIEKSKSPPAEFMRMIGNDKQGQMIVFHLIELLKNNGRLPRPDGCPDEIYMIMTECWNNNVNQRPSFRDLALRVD

SMILES | inhibition at 10 µM (Tyk2 kinase domain (DH1)) [%] | Kd [1] [nM] | inhibition at 10 µM (JAK2 kinase domain (JH1)) [%]
CNc1cc(Nc2cc(C)cn(-c3cnn(C4CC4)c3C)c2=O)nc2c(C(N)=O)cnn12 [I-114] | < 50 | 1 to 10 | < 50
CNc1cc(Nc2cccn(-c3ccc(F)cn3)c2=O)nc2c(C(=O)NC3CC3)cnn12 [I-116] | < 50 | < 0.2 | < 50
CCOc1ccc(-n2cccc(Nc3cc(NC)n4ncc(C(=O)NC5CC5)c4n3)c2=O)nn1 [I-118] | < 50 | 0.2 to 1 | < 50
CO[C@H]1C[C@H](Oc2ncc(Cl)cc2Nc2cc(N)n3ncc(C(N)=O)c3n2)C1 [I-119] | < 50 | 1 to 10 | < 50
NC(=O)c1cnn2c(N)cc(Nc3cc(N4CCCC4)nc(C(F)(F)F)c3)nc12 [I-120] | < 50 | 1 to 10 | < 50
CNc1cc(Nc2cccn(-c3ccnc(C)n3)c2=O)nc2c(C(=O)NC3CC3)cnn12 [I-125] | < 50 | < 0.2 | < 50
CNc1cc(Nc2cccn(-c3ccc(C(=O)N4CCCC4)cn3)c2=O)nc2c(C(=O)N[C@H]3C[C@H]3F)cnn12 [I-128] | < 50 | < 0.2 | < 50
CNc1cc(Nc2cccn(-c3ccc(C(=O)N4CCCC4)cn3)c2=O)nc2c(C(=O)NC3CC3)cnn12 [I-129] | < 50 | < 0.2 | < 50
CNc1cc(Nc2cccn(-c3cccc(C)n3)c2=O)nc2c(C(=O)NC3CCC3)cnn12 [I-130, N-cyclobutyl-5-((6′-methyl-2-oxo-2H-[1,2′-bipyridin]-3-yl)amino)-7-(methylamino)pyrazolo[1,5-a]pyrimidine-3-carboxamide] | < 50 | < 0.2 | < 50
CNc1cc(Nc2ccnn(-c3ccc(F)cc3)c2=O)nc2c(C(=O)N[C@H]3C[C@H]3F)cnn12 [I-134] | < 50 | 0.2 to 1 | < 50
CNc1cc(Nc2cccn(-c3ccn(C)n3)c2=O)nc2c(C(=O)N[C@H]3C[C@H]3F)cnn12 [I-140] | < 50 | < 0.2 | < 50
CNc1cc(Nc2cccn(-c3ccc(C(=O)N4CCC4)cn3)c2=O)nc2c(C(=O)N[C@H]3C[C@H]3F)cnn12 [I-142] | < 50 | < 0.2 | < 50
CNc1cc(Nc2cccnc2OC(C)C)nc2c(C(=O)NC3CC3)cnn12 [I-146] | < 50 | 0.2 to 1 | < 50
CNc1cc(Nc2cc(Cl)cnc2OC(C)C)nc2c(C(=O)N[C@H]3C[C@H]3F)cnn12 [I-148] | < 50 | 0.2 to 1 | < 50
CNc1cc(Nc2cc(Cl)cnc2OC(C)C)nc2c(C(=O)NC3CCC3)cnn12 [I-149] | < 50 | 1 to 10 | < 50
CNc1cc(Nc2cc(Cl)cnc2OC(C)C)nc2c(C(=O)NC3CC3)cnn12 [I-150] | < 50 | 0.2 to 1 | < 50
CNc1cc(Nc2cccnc2OC(F)F)nc2c(C(N)=O)cnn12 [I-152] | < 50 | 0.2 to 1 | < 50
CNc1cc(Nc2cccn(-c3cccc(C(C)(C)O)n3)c2=O)nc2c(C(=O)NC3CC3)cnn12 [I-155] | < 50 | < 0.2 | < 50
CNc1cc(Nc2cccn(-c3nccs3)c2=O)nc2c(C(=O)NC3CC3)cnn12 [I-157] | < 50 | < 0.2 | < 50
CNc1cc(Nc2cc(C)cn(-c3cnn(C4CC4)c3C)c2=O)nc2c(C(=O)NC3CCC3)cnn12 [I-159] | < 50 | 0.2 to 1 | < 50
CNc1cc(Nc2cccn([C@H]3CC[C@H](O)CC3)c2=O)nc2c(C(=O)N[C@H]3C[C@H]3F)cnn12 [I-166] | < 50 | < 0.2 | < 50
CNc1cc(Nc2cccn([C@H]3CC[C@H](O)CC3)c2=O)nc2c(C(=O)NC3CC3)cnn12 [I-167] | < 50 | < 0.2 | < 50
CNc1cc(Nc2cccnc2OC2CCC2)nc2c(C(=O)NC3CCC3)cnn12 [I-168] | < 50 | 0.2 to 1 | < 50
CNc1cc(Nc2cccnc2OC2CCC2)nc2c(C(=O)NC3CC3)cnn12 [I-169] | < 50 | 0.2 to 1 | < 50
CNc1cc(Nc2cccnc2O[C@@H]2CCOC2)nc2c(C(=O)NC3CCC3)cnn12 [I-171] | < 50 | 0.2 to 1 | < 50

SMILES | inhibition at 10 µM (Tyk2 kinase domain (DH1)) [%] | Kd [1] [nM] | inhibition at 10 µM (JAK2 kinase domain (JH1)) [%]
CNc1cc(Nc2cccnc2O[C@@H]2CCOC2)nc2c(C(=O)NC3CC3)cnn12 [I-172] | < 50 | 0.2 to 1 | < 50
CNc1cc(Nc2cccnc2OC2CCOCC2)nc2c(C(=O)NC3CC3)cnn12 [I-173] | < 50 | 0.2 to 1 | < 50
CNc1cc(Nc2cccnc2OC2CCOCC2)nc2c(C(=O)N[C@H]3C[C@H]3F)cnn12 [I-174] | < 50 | < 0.2 | < 50
CNc1cc(Nc2cc(Cl)cn(-c3cn(C4CC4)nc3C)c2=O)nc2c(C(N)=O)cnn12 [I-178] | < 50 | 0.2 to 1 | < 50
CNc1cc(Nc2cc(Cl)cn(-c3cn(C4CC4)nc3C)c2=O)nc2c(C(=O)NC3CCC3)cnn12 [I-179] | < 50 | 0.2 to 1 | < 50
CNc1cc(Nc2cc(Cl)cn(-c3cnn(C4CC4)c3C)c2=O)nc2c(C(N)=O)cnn12 [I-180] | < 50 | < 0.2 | < 50
CNc1cc(Nc2cc(Cl)cn(-c3cnn(C4CC4)c3C)c2=O)nc2c(C(=O)NC3CCC3)cnn12 [I-181] | < 50 | 0.2 to 1 | < 50
CNc1cc(Nc2cccnc2O[C@H]2C[C@@H](OC)C2)nc2c(C(=O)NC3CCC3)cnn12 [I-183] | < 50 | < 0.2 | < 50
CNc1cc(Nc2cccnc2O[C@H]2C[C@@H](OC)C2)nc2c(C(=O)NC3CC3)cnn12 [I-184] | < 50 | 0.2 to 1 | < 50
CNc1cc(Nc2cccnc2OC2CCOCC2)nc2c(C(=O)NC3CCC3)cnn12 [I-185] | < 50 | 0.2 to 1 | < 50
CNc1cc(Nc2cccnc2O[C@H]2C[C@@H](OC)C2)nc2c(C(=O)N[C@H]3C[C@H]3F)cnn12 [I-186] | < 50 | < 0.2 | < 50
CNc1cc(Nc2cccnc2O[C@H]2C[C@H](OC)C2)nc2c(C(=O)NC3CCC3)cnn12 [I-187] | < 50 | < 0.2 | < 50
CNc1cc(Nc2cccnc2O[C@H]2C[C@H](OC)C2)nc2c(C(=O)NC3CC3)cnn12 [I-188] | < 50 | < 0.2 | < 50
CNc1cc(Nc2cccnc2O[C@H]2C[C@H](OC)C2)nc2c(C(=O)N[C@H]3C[C@H]3F)cnn12 [I-189] | < 50 | < 0.2 | < 50
CNc1cc(Nc2cccn(C3CCN(CC(F)F)CC3)c2=O)nc2c(C(=O)NC3CC3)cnn12 [I-191] | < 50 | < 0.2 | < 50
CNc1cc(Nc2cccn([C@@H]3CCOC3)c2=O)nc2c(C(N)=O)cnn12 [I-195] | < 50 | 0.2 to 1 | < 50
CNc1cc(Nc2cccn([C@H]3CCOC3)c2=O)nc2c(C(N)=O)cnn12 [I-196] | < 50 | 0.2 to 1 | < 50
CNc1cc(-c2c[nH]c3c(C4CCOCC4)cc(Cl)cc23)nc2c(C(=O)NC3CC3)cnn12 [I-197] | < 50 | 0.2 to 1 | < 50
CNc1cc(Nc2cccnc2OC(CO)CO)nc2c(C(=O)NC3CC3)cnn12 [I-199] | < 50 | 0.2 to 1 | < 50
CNc1cc(Nc2cccnc2OC(CO)CO)nc2c(C(=O)N[C@H]3C[C@H]3F)cnn12 [I-200] | < 50 | 0.2 to 1 | < 50
CNc1cc(Nc2cccnc2OC(CO)CO)nc2c(C(=O)NC3CCC3)cnn12 [I-201] | < 50 | < 0.2 | < 50
CNc1cc(Nc2cccn([C@@H]3CCOC3)c2=O)nc2c(C(=O)NC3CC3)cnn12 [I-202] | < 50 | 0.2 to 1 | < 50
CNc1cc(Nc2cccn([C@H]3CCOC3)c2=O)nc2c(C(=O)NC3CC3)cnn12 [I-203] | < 50 | < 0.2 | < 50
CNc1cc(Nc2cccn([C@@H]3CCOC3)c2=O)nc2c(C(=O)NC3CCC3)cnn12 [I-204] | < 50 | 0.2 to 1 | < 50
CNc1cc(Nc2cccn([C@H]3CCOC3)c2=O)nc2c(C(=O)NC3CCC3)cnn12 [I-205] | < 50 | < 0.2 | < 50
